From ChEMBL document CHEMBL1143076, “Polydiscamides B-D from a marine sponge Ircinia sp. as potent human sensory neuron-specific G protein coupled receptor agonists” (J Nat Prod, 2008) come the findings set out here.

The nature of this test: Agonist activity at human sensory neuron-specific G-protein coupled receptor expressed in HEK293 cells assessed as intracellular calcium mobilization by FLIPR. Type of test: functional, cell-based. On the technique in general: Calcium assays in cells follow changes in intracellular calcium, usually with a dye or a luminescent sensor.

SMILES strings stand for the structures.

For `CCC(C)(C)[C@H](NC(=O)[C@H](NC(=O)[C@@H]1CCCN1C(=O)[C@H](Cc1ccc(Br)cc1)NC(=O)[C@@H](C)NC=O)C(C)C)C(=O)N[C@H](Cc1c[nH]c2ccccc12)C(=O)N[C@@H](CCCNC(=N)N)C(=O)N[C@H](CS(=O)(=O)O)C(=O)N[C@@H]1C(=O)N(C)[C@@H](CCC(N)=O)C(=O)N[C@H](C(C)C)C(=O)N2CCC[C@H]2C(=O)N[C@H](CC(=O)O)C(=O)O[C@@H]1C` [POLYDISCAMIDE C], the EC50 (commonly the concentration needed to bring the measured effect to its halfway point) stood at 3570 nM.

For `CCC(C)(C)[C@H](NC(=O)[C@H](NC(=O)[C@@H]1CCCN1C(=O)[C@H](Cc1ccc(Br)cc1)NC(=O)[C@@H](C)NC=O)C(C)(C)C)C(=O)N[C@H](Cc1c[nH]c2ccccc12)C(=O)N[C@@H](CCCNC(=N)N)C(=O)N[C@H](CS(=O)(=O)O)C(=O)N[C@@H]1C(=O)N(C)[C@@H](CCC(N)=O)C(=O)N[C@H](C(C)C)C(=O)N2CCC[C@H]2C(=O)N[C@H](CC(=O)O)C(=O)O[C@@H]1C` [POLYDISCAMIDE B], the EC50 is 1260 nM.

Turning to `CC(C)[C@@H](NC(=O)[C@@H]1CCCN1C(=O)[C@H](Cc1ccc(Br)cc1)NC(=O)[C@@H](C)NC=O)C(=O)N[C@H](C(=O)N[C@H](Cc1c[nH]c2ccccc12)C(=O)N[C@@H](CCCNC(=N)N)C(=O)N[C@H](CS(=O)(=O)O)C(=O)N[C@@H]1C(=O)N(C)[C@@H](CCC(N)=O)C(=O)N[C@H](C(C)C)C(=O)N2CCC[C@H]2C(=O)N[C@H](CC(=O)O)C(=O)O[C@@H]1C)C(C)(C)C` [POLYDISCAMIDE D], the EC50 is 2800 nM.
